{"source": "patent US10981894B2", "about": "“Melanocortin subtype-2 receptor (MC2R) antagonists and uses thereof” (Crinetics Pharmaceuticals, Inc., priority 2018, dated 2021)", "target": "hMC2 receptor (Homo sapiens, UniProt Q01718)", "sequence (Q01718 whole entry)": "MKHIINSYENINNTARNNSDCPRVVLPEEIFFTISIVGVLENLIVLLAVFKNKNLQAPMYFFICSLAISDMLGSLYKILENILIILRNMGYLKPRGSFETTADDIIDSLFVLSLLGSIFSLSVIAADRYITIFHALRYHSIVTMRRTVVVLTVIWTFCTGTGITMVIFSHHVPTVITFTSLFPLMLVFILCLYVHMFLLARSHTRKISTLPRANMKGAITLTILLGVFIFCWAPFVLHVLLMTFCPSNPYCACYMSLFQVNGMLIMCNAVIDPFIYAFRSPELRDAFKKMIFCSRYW", "sequence (Q8TCY5 whole entry partner)": "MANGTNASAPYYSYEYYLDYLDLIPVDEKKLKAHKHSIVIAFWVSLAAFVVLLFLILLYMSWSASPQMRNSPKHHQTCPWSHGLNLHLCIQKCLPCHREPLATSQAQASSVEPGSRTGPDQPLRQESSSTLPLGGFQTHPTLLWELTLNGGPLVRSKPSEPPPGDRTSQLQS", "test": "hMC2 membrane binding assay ([125I]ACTH (1-39) Tyr23, SPA)", "parameters": "scale not given here", "details": "crude hMC2R membranes from CRE-bla-CHO-K1 cells expressing hMC2 receptor and hMRAP; [125I]ACTH (1-39) Tyr23 0.2 nM; 1.5 hours at room temperature; read-out: MC2R binding potency", "method": "Crude membrane fractions are prepared from CRE-bla-CHO-K1 cells stably expressing hMC2 receptor and hMRAP accessory protein (Thermo Fisher). The cells are grown to 85-100% confluence on standard tissue culture dishes in GlutaMax DMEM growth media (Gibco) with following additives: 10% dialyzed FBS (Gemini), 0.1 mM NEAA (Gibco), 25 mM HEPES (Gibco), 5 μg/mL blasticidin (Goldbio), 100 μg/mL zeocin (Invitrogen), 600 μg/mL hygromycin (Goldbio). To prepare membranes, cells are scraped and collected in 1× Dulbecco's phosphate buffered saline (Corning) and then pelleted at 1000 RPM's. The cell pellet is reconstituted in membrane preparation buffer (20 mM HEPES, 6 mM MgCl2 and 1 mM EGTA, protease inhibitor tablets (Pierce) adjusted to pH 7.4), homogenized using a dounce homogenizer, and the resulting membrane fraction is pelleted by centrifugation at 12,000 RPM's. The membrane pellet is resuspended in membrane preparation buffer, snap freezed and stored at −80° C. for later use.\nBinding Assay for hMC2 Antagonists Protocol:\nThe hMC2 membrane binding assay utilizes the following components: radiolabel [^125I]ACTH (1-39) Tyr23 (PerkinElmer), wheatgerm agglutinin coated PVT SPA beads (PerkinElmer), crude hMC2R membranes, and compounds. Briefly hMC2R membranes are incubated with SPA beads in binding assay buffer (50 mM HEPES, 5 mM MgCl2, 1 mM CaCl2, 0.2% BSA, protease inhibitor tablets (Pierce) adjusted to pH7.4) prior to assay initiation. A dose response of compound (the final concentration of compound are typically 0-10,000 nM), SPA membranes, and [^125I]ACTH (1-39) Tyr23 at a final concentration of 0.2 nM is plated in a 96-well assay plate and allowed to incubate 1.5 hours at room temperature. Assay plates are read using a Top Count NXT and Ki values for compounds are determined using a GraphPad Prism 6 non-linear regression analysis.", "note": "pKi: −log10 of the molar value."}
{"smiles": "CC[C@@H]1CN(C(=O)c2ccc(C(F)(F)F)cc2Cl)CCN1c1ccc(-c2ccccc2C(=O)NC)cc1C(=O)NCCN", "note": "[Compound 1-20, (R)-N3′-(2-aminoethyl)-4′-(4-(2-chloro-4-(trifluoromethyl)benzoyl)-2-ethylpiperazin-1-yl)-N2-methyl-[1,1′-biphenyl]-2,3′-dicarboxamide]", "values": [{"measurement": "pKi", "value": "7.00 to 8.00"}]}
{"smiles": "CCOc1ccccc1-c1ccc(N2CCN(C(=O)c3ccc(C(F)(F)F)cc3Cl)C[C@H]2CC)c(C(=O)NCCCN)c1", "note": "[Compound 1-23, N-(3-aminopropyl)-4-[(2R)-4-[2-chloro-4-(trifluoromethyl)benzoyl]-2-ethylpiperazin-1-yl]-2′-ethoxy-[1,1′-biphenyl]-3-carboxamide]", "values": [{"measurement": "pKi", "value": "7.00 to 8.00"}]}
{"smiles": "CCOc1ccccc1-c1ccc(N2CCN(C(=O)c3ccc(Cl)cc3C(F)(F)F)C[C@H]2CC)c(C(=O)NCCN)c1", "note": "[Compound 1-25, N-(2-aminoethyl)-4-[(2R)-4-[4-chloro-2-(trifluoromethyl)benzoyl]-2-ethylpiperazin-1-yl]-2′-ethoxy-[1,1′-biphenyl]-3-carboxamide]", "values": [{"measurement": "pKi", "value": "> 8.00"}]}
{"smiles": "CCOc1ccccc1-c1ccc(N2CCN(C(=O)c3ccccc3-c3ccc(CN)c(F)c3)C[C@H]2CC)c(C(=O)NCCN)c1", "note": "[Compound 1-26, N-(2-aminoethyl)-4-[(2R)-4-[4′-(aminomethyl)-3′-fluoro-[1,1′-biphenyl]-2-carbonyl]-2-ethylpiperazin-1-yl]-2′-ethoxy-[1,1′-biphenyl]-3-carboxamide]", "values": [{"measurement": "pKi", "value": "> 8.00"}]}
{"smiles": "CCOc1ccccc1-c1ccc(N2CCN(C(=O)c3c(F)cc(C)cc3-c3ccc(CN)cc3)C[C@H]2CC)c(C(=O)NCCN)c1", "note": "[Compound 1-27, N-(2-aminoethyl)-4-[(2R)-4-[4′-(aminomethyl)-3-fluoro-5-methyl-[1,1′-biphenyl]-2-carbonyl]-2-ethylpiperazin-1-yl]-2′-ethoxy-[1,1′-biphenyl]-3-carboxamide]", "values": [{"measurement": "pKi", "value": "> 8.00"}]}
{"smiles": "CCOc1cccnc1-c1ccc(N2CCN(C(=O)c3ccc(C(F)(F)F)cc3Cl)C[C@H]2CC)c(C(=O)NCCN)c1", "note": "[Compound 1-32, N-(2-aminoethyl)-2-[(2R)-4-[2-chloro-4-(trifluoromethyl)benzoyl]-2-ethylpiperazin-1-yl]-5-(3-ethoxypyridin-2-yl)benzamide]", "values": [{"measurement": "pKi", "value": "7.00 to 8.00"}]}
{"smiles": "CCOc1cnccc1-c1ccc(N2CCN(C(=O)c3ccc(C(F)(F)F)cc3Cl)C[C@H]2CC)c(C(=O)NCCN)c1", "note": "[Compound 1-33, N-(2-aminoethyl)-2-[(2R)-4-[2-chloro-4-(trifluoromethyl)benzoyl]-2-ethylpiperazin-1-yl]-5-(3-ethoxypyridin-4-yl)benzamide]", "values": [{"measurement": "pKi", "value": "7.00 to 8.00"}]}
{"smiles": "CCOc1ncccc1-c1ccc(N2CCN(C(=O)c3ccc(C(F)(F)F)cc3Cl)C[C@H]2CC)c(C(=O)NCCN)c1", "note": "[Compound 1-34, N-(2-aminoethyl)-2-[(2R)-4-[2-chloro-4-(trifluoromethyl)benzoyl]-2-ethylpiperazin-1-yl]-5-(2-ethoxypyridin-3-yl)benzamide]", "values": [{"measurement": "pKi", "value": "> 8.00"}]}
{"smiles": "CCOc1ccncc1-c1ccc(N2CCN(C(=O)c3ccc(C(F)(F)F)cc3Cl)C[C@H]2CC)c(C(=O)NCCN)c1", "note": "[Compound 1-35, N-(2-aminoethyl)-2-[(2R)-4-[2-chloro-4-(trifluoromethyl)benzoyl]-2-ethylpiperazin-1-yl]-5-(4-ethoxypyridin-3-yl)benzamide]", "values": [{"measurement": "pKi", "value": "> 8.00"}]}
{"smiles": "CCOc1ncccc1-c1ccc(N2CCN(C(=O)c3ccc(F)cc3-c3ccc(CN)cc3)C[C@H]2CC)c(C(=O)NCCN)c1", "note": "[Compound 1-36, N-(2-aminoethyl)-2-[(2R)-4-[4′-(aminomethyl)-5-fluoro-[1,1′-biphenyl]-2-carbonyl]-2-ethylpiperazin-1-yl]-5-(2-ethoxypyridin-3-yl)benzamide]", "values": [{"measurement": "pKi", "value": "> 8.00"}]}
{"smiles": "CCOc1ncccc1-c1ccc(N2CCN(C(=O)c3ccc(Cl)cc3C(F)(F)F)C[C@H]2CC)c(C(=O)NCCN)c1", "note": "[Compound 1-37, N-(2-aminoethyl)-2-[(2R)-4-[4-chloro-2-(trifluoromethyl)benzoyl]-2-ethylpiperazin-1-yl]-5-(2-ethoxypyridin-3-yl)benzamide]", "values": [{"measurement": "pKi", "value": "> 8.00"}]}
{"smiles": "CCOc1ncccc1-c1ccc(N2CCN(C(=O)c3ccc(F)cc3Cl)C[C@H]2CC)c(C(=O)NCCN)c1", "note": "[Compound 1-38, N-(2-aminoethyl)-2-[(2R)-4-(2-chloro-4-fluorobenzoyl)-2-ethylpiperazin-1-yl]-5-(2-ethoxypyridin-3-yl)benzamide]", "values": [{"measurement": "pKi", "value": "> 8.00"}]}
{"smiles": "CCOc1ncccc1-c1ccc(N2CCN(C(=O)c3ccc(Cl)cc3N3CC[C@H](CN)C3)C[C@H]2CC)c(C(=O)NCCN)c1", "note": "[Compound 1-40, N-(2-aminoethyl)-2-[(2R)-4-{2-[(3R)-3-(aminomethyl)pyrrolidin-1-yl]-4-chlorobenzoyl}-2-ethylpiperazin-1-yl]-5-(2-ethoxypyridin-3-yl)benzamide]", "values": [{"measurement": "pKi", "value": "> 8.00"}]}
{"smiles": "CCOc1ncccc1-c1ccc(N2CCN(C(=O)c3ccc(Cl)cc3N3CC[C@@H](CN)C3)C[C@H]2CC)c(C(=O)NCCN)c1", "note": "[Compound 1-41, N-(2-aminoethyl)-2-[(2R)-4-{2-[(3S)-3-(aminomethyl)pyrrolidin-1-yl]-4-chlorobenzoyl}-2-ethylpiperazin-1-yl]-5-(2-ethoxypyridin-3-yl)benzamide]", "values": [{"measurement": "pKi", "value": "> 8.00"}]}
{"smiles": "CCOc1ncccc1-c1ccc(N2CCN(C(=O)c3ccc(Cl)cc3Cl)C[C@H]2CC)c(C(=O)NCCN)c1", "note": "[Compound 1-42, N-(2-aminoethyl)-2-[(2R)-4-(2,4-dichlorobenzoyl)-2-ethylpiperazin-1-yl]-5-(2-ethoxypyridin-3-yl)benzamide]", "values": [{"measurement": "pKi", "value": "> 8.00"}]}
{"smiles": "CCOc1ncccc1-c1ccc(N2CCN(C(=O)c3ccc(C)cc3Cl)C[C@H]2CC)c(C(=O)NCCN)c1", "note": "[Compound 1-43, N-(2-aminoethyl)-2-[(2R)-4-(2-chloro-4-methylbenzoyl)-2-ethylpiperazin-1-yl]-5-(2-ethoxypyridin-3-yl)benzamide]", "values": [{"measurement": "pKi", "value": "> 8.00"}]}
{"smiles": "CCOc1ncccc1-c1ccc(N2CCN(C(=O)c3c(F)cc(C)cc3-c3ccc(CN)cc3)C[C@H]2CC)c(C(=O)NCCN)c1", "note": "[Compound 1-44, N-(2-aminoethyl)-2-[(2R)-4-[4′-(aminomethyl)-3-fluoro-5-methyl-[1,1′-biphenyl]-2-carbonyl]-2-ethylpiperazin-1-yl]-5-(2-ethoxypyridin-3-yl)benzamide]", "values": [{"measurement": "pKi", "value": "> 8.00"}]}
{"smiles": "CCOc1ncccc1-c1ccc(N2CCN(C(=O)c3ccc(Cl)cc3C(F)(F)F)C[C@H]2CC)c(C(=O)N[C@@H]2CCNC2)c1", "note": "[Compound 1-45, 2-[(2R)-4-[4-chloro-2-(trifluoromethyl)benzoyl]-2-ethylpiperazin-1-yl]-5-(2-ethoxypyridin-3-yl)-N-[(3R)-pyrrolidin-3-yl]benzamide]", "values": [{"measurement": "pKi", "value": "> 8.00"}]}
{"smiles": "CCOc1ncccc1-c1ccc(N2CCN(C(=O)c3ccc(Cl)cc3C(F)(F)F)C[C@H]2CC)c(C(=O)NCCNC)c1", "note": "[Compound 1-46, 2-[(2R)-4-[4-chloro-2-(trifluoromethyl)benzoyl]-2-ethylpiperazin-1-yl]-5-(2-ethoxypyridin-3-yl)-N-[2-(methylamino)ethyl]benzamide]", "values": [{"measurement": "pKi", "value": "> 8.00"}]}
{"smiles": "CCOc1ncccc1-c1ccc(N2CCN(C(=O)c3ccc(Cl)cc3C(F)(F)F)C[C@H]2CC)c(C(=O)NCCN(C)C)c1", "note": "[Compound 1-47, 2-[(2R)-4-[4-chloro-2-(trifluoromethyl)benzoyl]-2-ethylpiperazin-1-yl]-N-[2-(dimethylamino)ethyl]-5-(2-ethoxypyridin-3-yl)benzamide]", "values": [{"measurement": "pKi", "value": "> 8.00"}]}
{"smiles": "CCOc1ncccc1-c1ccc(N2CCN(C(=O)c3ccc(Cl)cc3C(F)(F)F)C[C@H]2CC)c(C(=O)N[C@@H]2CCN(C)C2)c1", "note": "[Compound 1-48, 2-[(2R)-4-[4-chloro-2-(trifluoromethyl)benzoyl]-2-ethylpiperazin-1-yl]-5-(2-ethoxypyridin-3-yl)-N-[(3R)-1-methylpyrrolidin-3-yl]benzamide]", "values": [{"measurement": "pKi", "value": "> 8.00"}]}
{"smiles": "CCOc1ncccc1-c1ccc(N2CCN(C(=O)c3ccc(Cl)cc3C(F)(F)F)C[C@H]2CC)c(C(=O)NCCN2CCCC2)c1", "note": "[Compound 1-49, 2-[(2R)-4-[4-chloro-2-(trifluoromethyl)benzoyl]-2-ethylpiperazin-1-yl]-5-(2-ethoxypyridin-3-yl)-N-[2-(pyrrolidin-1-yl)ethyl]benzamide]", "values": [{"measurement": "pKi", "value": "> 8.00"}]}
{"smiles": "CCOc1ncccc1-c1ccc(N2CCN(C(=O)c3ccc(C(F)(F)F)cc3N3CCC(CN)C3)C[C@H]2CC)c(C(=O)NCCN)c1", "note": "(stereo partly drawn) [Compound 1-50, N-(2-aminoethyl)-2-[(2R)-4-{2-[3-(aminomethyl)pyrrolidin-1-yl]-4-(trifluoromethyl)benzoyl}-2-ethylpiperazin-1-yl]-5-(2-ethoxypyridin-3-yl)benzamide]", "values": [{"measurement": "pKi", "value": "> 8.00"}]}
{"smiles": "CCOc1ncccc1-c1ccc(N2CCN(C(=O)c3ccc(F)cc3N3CCC(CN)C3)C[C@H]2CC)c(C(=O)NCCN)c1", "note": "(stereo partly drawn) [Compound 1-51, N-(2-aminoethyl)-2-[(2R)-4-{2-[3-(aminomethyl)pyrrolidin-1-yl]-4-fluorobenzoyl}-2-ethylpiperazin-1-yl]-5-(2-ethoxypyridin-3-yl)benzamide]", "values": [{"measurement": "pKi", "value": "> 8.00"}]}
